“Also recorded” adds a separate entry of the source.

This note sets out measurements from patent US7456197B2, “Pyridinium cationic lipids as gene transfer agents” (The Texas A&M University System, priority 2003, dated 2008).

Series [1] in a line: Cationic liposome size by dynamic light scattering. Type of series: physicochemical. The protocol:
(§1) The three series of cationic lipids newly synthesized were assessed for their transfection efficiency in vitro, using the experimental conditions optimized in a previous study.^23 Essentially the cationic lipids were mixed with cholesterol at a 1:1 molar ratio, dissolved in chloroform/methanol and dried under vacuum to generate a lipid film. The dried lipid film was hydrated with sterile phosphate buffer isotonic saline with pH=7.4 (PBS) and sonicated to yield cationic liposomes. The resulting liposomal solution was allowed to react with a DNA solution to form the final cationic lipid-DNA complexes (lipoplexes), which were assessed for transfection efficiency using different cell cultures. We used a pGL3 plasmid (Promega, Madison, Wisc.), encoding a firefly luciferase gene under the control of the constitutively active SV40 promoter as the reporter for the transfection efficiency. An optimal^23 electrostatic charge ratio cationic lipid/DNA of 2:1 was used in all preparations. […] The ability of these new cationic lipids to generate relatively small cationic liposomes could be attributed to the relatively large curvature radius induced in the bilayer by the bulky pyridinium cationic head.
(§2) Dioleoylphosphatidylethanolamine (DOPE), cholesterol (CHOL), N-(2,3-dioleoyloxypropyl)-N,N,N-trimethylammonium chloride (DOTAP) were commercial products. The purity of the lipids was checked by thin layer chromatography and also by differential scanning calorimetry (DSC), which was also used for determining the critical temperature Tc. For the preparation of the liposomes a protocol optimized for this type of compounds was adopted as follows. The cationic lipid (with or without helper lipid) was dissolved in chloroform/methanol (2/1, v/v) to reach a final concentration of 1 mM for the charged species. From this stock solution 50 μL were aliquoted in a 1 mL tube and the solvent was evaporated in a SpeedVac evaporator, under vacuum, for 1 h. The dried lipid film was prepared by removing the traces of organic solvent in a dessicator, over Drierite®, under vacuum, overnight. The film was hydrated with 500 μL sterile phosphate buffer saline (PBS) the tube was purged with sterile N2, and vortexed for 1 minute. The liposomes were generated by sonicating the tube in a water bath sonicator for 5-30 minutes at 62° C. and at 37° C. for DOTAP. After sonication the preparations were allowed to reach room temperature.

The subject of series [2] is cancer cell line NCI-H23. In words: WST-1 viability assay of transfected cells. It counts as cell-based, human. Here is the method:
FIG. 6. Viability assay results for the cancer cell line NCI-H23 transfected with 5AMyr-5EMyr and DOTAP (Cl^−)-based lipoplexes. The other characteristics were the same as in the transfection experiment represented in FIG. 5.
In order to assess the cytotoxicity associated with every anion, a WST-1^28 viability assay was conducted in parallel.
On the technique in general: Tetrazolium assays rely on reduction of a dye to a coloured formazan, in cell work by metabolically active cells.

The subject of series [3] is lung cancer cell line NCI-H23. In words: Luciferase (pGL3) transfection efficiency of lipoplexes, NCI-H23. It counts as cell-based, human. Here is the method:
as §1, §2
For generating the lipoplexes, 1.4-2.8 μL plasmid DNA solution (0.5 μg/μL) was diluted with 100 μL Optimem®. A liposome solution was prepared separately by diluting the initial liposomal stock solution (0.1 mM in cationic lipid) with Optimem® in specified proportions, to reach a final volume of 50 μL. Over this liposome solution 50 μL of the DNA stock solution was added, the tube was incubated for 30 minutes at room temperature and then the content diluted with 500 μL Optimem® (final volume of the lipoplex stock solution: 600 μL).
The lipoplexes was tested for their transfection properties over five different cancer cell lines—breast carcinoma (MCF-7 and MDA-Mb231), lung carcinoma (NCI-H23), prostate carcinoma (DU-145) and brain carcinoma (SWB-95). The cells were maintained in 10% fetal bovine serum (FBS)—enriched RPMI 1640 at 37° C. and 5% CO2 in a humidified atmosphere. Twenty-four hours prior to transfection the cells were transferred in 96-wells microtiter plate at a density of 20,000 cells/well. Each well received 100 μL medium and the plate was incubated in the same conditions. All experiments were done in triplicate or quadruplicate.
Immediately before transfection the medium was removed from each well and the cells were briefly washed with 200 μL sterile PBS. After removal of the PBS each well received 100 μL lipoplex stock solution and the plate was placed in the incubator for 1 hour. Then, 100 μL medium was added to each well and the plate was incubated for 24 hours. […]

Series [4] concerns lung cancer cell line NCI-H23. The description is as above. It counts as cell-based, human. The following applies: exposure from one hour to three hours; data not shown.

As to `CCCCCCCCCCCCCC(=O)OCC(COC(=O)CCCCCCCCCCCCC)[n+]1c(C)cc(C)cc1C.F[P-](F)(F)(F)(F)F` [Lipid 5AMyr, 1-(1,3-dimyristoyloxypropane-2-yl)-2,4,6-trimethylpyridinium hexafluorophosphate], the “average size of the cationic vesicles” value amounted to 95 nm in series [1] (cholesterol at 1:1 molar ratio to cationic lipid) and 88 nm in series [1] (molar ratio of cholesterol to lipid halved). Besides, in series [2] (NCI-H23 transfected with lipoplexes, Chol 1:1, FIG. 6), the “cytotoxicity (WST-1 viability)” value is listed as “minimum cytotoxicity; also recorded: lower cytotoxic effect”. In series [2] (exposure from one hour to three hours, data not shown), the “cytotoxic effect on longer cell exposure to lipoplexes” value is recorded as “without any visible cytotoxic effect”. Also, the “transfection efficiency, counterion study” value in series [3] (5Myr/Chol 1:1, PBS, sonicated two sequences of 15 minutes, FIG. 5) is “surpassed DOTAP in transfection efficiency”. The “expression of luciferase relative to DOTAP/Chol 1:1” value in series [3] (cholesterol 1:1) is listed as “about twice more effective than DOTAP”. Further, the “transfection efficiency (in words)” value in series [3] (cholesterol as helper lipid 1:1, charge ratio lipid/DNA 2:1) is listed as “highest transfection peaks; also recorded: the most effective”. The “transfection efficiency (luciferase activity normalized for protein)” value in series [3] (optimized lipoplexes, Chol 1:1, FIG. 7 caption (from FIG. 4)) is 576000 RLU/μg of protein. In addition, the “transfection efficiency on longer cell exposure to lipoplexes” value in series [4] is “higher transfection efficiencies”.
